The values that follow come from publication PMC8998350, “The Evidence for Effective Inhibition of INa Produced by Mirogabalin ((1R,5S,6S)-6-(aminomethyl)-3-ethyl-bicyclo [3.2.0] hept-3-ene-6-acetic acid), a Known Blocker of CaV Channels” (International Journal of Molecular Sciences, 2022).

The experiment has as its system T1, voltage-gated Na+ (NaV) channel.
T1 construct: native channels of pituitary GH3 cells, isoform not resolved
Nature of the experiment: whole-cell patch clamp of native late INa in GH3 cells. The format is cell-based.

Broadly, the IC50 is the concentration that gives 50% inhibition. A lower IC50 goes with greater potency in that assay.

`CCC1=C[C@@H]2[C@H](C1)C[C@]2(CN)CC(=O)O` [MGB, (1R,5S,6S)-6-(aminomethyl)-3-ethyl-bicyclo [3.2.0] hept-3-ene-6-acetic acid]: the IC50 stood at 7.3 µM.
